What all share (experiment): NCI-60 cell line screen, 48 h
Assay [1] deals with CAKI-1.
For assay [2], the system named is CCRF-CEM.
The subject of assay [3] is HOP-62.
In assay [4] the test system is Hs-578T.
Assay [5] has as its system K562.
Assay [6] deals with LOX IMVI.
In assay [7] the test system is MDA-MB-231.
The subject of assay [8] is Malme-3M.
Assay [9] deals with NCI/ADR-RES.
The test system of assay [10] is OVCAR-5.
In assay [11] the test system is RXF 393.
The subject of assay [12] is SF-295.
The test system of assay [13] is SK-OV-3.
Assay [14] relates to SNB-75.
Assay [15] has as its system SR.
Assay [16] deals with T47D.
The subject of assay [17] is TK-10.
In assay [18] the test system is UO-31.
Assay [19] relates to OVCAR-3.
Assay [20] deals with RPMI-8226.

Consider eleven molecules from ChEMBL document CHEMBL1201862, “PubChem BioAssay data set” (2004).

Each structure is given as a SMILES string.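 Five compound concentrations were applied to cells in 96-well plates for 48 hours; endpoints were derived by simple linear interpolation of the resulting dose-response curve. GI50 marks 50% less growth.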 Active and inactive are the calls of the source. Cut-off read from the data, not from the text of the source: active = GI50 up to about 1.1 µM and inactive = higher. Where only a bound is given, the exact number is not on record here.

`CC1(C)c2ccccc2C(=O)C12CCC(=O)CC2`: the GI50 in assay [1] was > 100 µM (inactive); in [2], > 100 µM (inactive); in assay [3] it was > 100 µM (inactive); in assay [4], 69.8 µM (inactive); in assay [5] it was > 100 µM (inactive); in assay [6], > 100 µM (inactive). Further, the GI50 was > 100 µM (inactive) in assay [7]; 60.5 µM (inactive) in assay [8]; > 100 µM (inactive) in [9]; > 100 µM (inactive) in assay [10]; 12.4 µM (inactive) in assay [11]; > 100 µM (inactive) in assay [12]. Besides, the GI50 in assay [13] was > 100 µM (inactive); in assay [14], 0.504 µM (active); in [15], > 100 µM (inactive); in assay [16], > 100 µM (inactive); in assay [17], > 100 µM (inactive); in [18] it was 33.7 µM (inactive).

As for `CC(C)N(C(C)C)S(=O)(=O)C[C@]12CC[C@H](CC13OCC(CS(=O)(=O)c1ccccc1)O3)C2(C)C` (stereo partly specified), the GI50 is 81.3 µM (inactive) in assay [1]; 32.1 µM (inactive) in assay [2]; > 51.2 µM (inactive) in assay [3]; 94.4 µM (inactive) in assay [4]; 24.5 µM (inactive) in assay [5]; 64.6 µM (inactive) in [6]. In addition, the GI50 is > 100 µM (inactive) in assay [7]; 89.1 µM (inactive) in assay [8]; 41.9 µM (inactive) in assay [9]; 31.3 µM (inactive) in assay [19]; > 76.4 µM (inactive) in assay [10]; 26.5 µM (inactive) in assay [20]. The GI50 in [11] was 49 µM (inactive); in [12], 28.4 µM (inactive); in assay [13] it was 45.5 µM (inactive); in assay [14], 27.6 µM (inactive); in assay [16] it was 27.1 µM (inactive); in [17], 44.9 µM (inactive). Besides, the GI50 in assay [18] is 69.5 µM (inactive).

Take `c1ccc(COc2ncccc2C2SCCCS2)cc1`: the GI50 in [1] is > 100 µM (inactive); in [2], > 100 µM (inactive); in assay [3], > 100 µM (inactive); in assay [4], > 100 µM (inactive); in [5], 96.4 µM (inactive); in assay [6], 82.4 µM (inactive). Also, the GI50 in assay [7], in assay [8], in [9], in [19], in assay [10] and in assay [20] was > 100 µM (inactive) in each case. Moreover, the GI50 in assay [11] was 66.8 µM (inactive); in assay [12] it was > 100 µM (inactive); in assay [15], 70 µM (inactive); in [16], 32.9 µM (inactive); in [17] it was > 100 µM (inactive); in assay [18], > 100 µM (inactive).

`O=C(NCc1ccc(Cl)cc1)c1cc2sccc2nc1C(F)(F)F`: the GI50 is 31.7 µM (inactive) in assay [1]; > 100 µM (inactive) in assay [2]; 22.3 µM (inactive) in assay [3]; 19.8 µM (inactive) in assay [4]; > 100 µM (inactive) in assay [5]; 31.3 µM (inactive) in assay [7]. In addition, the GI50 in assay [8] is 42.3 µM (inactive); in assay [9], 39.1 µM (inactive); in [19] it was 26.9 µM (inactive); in [10] it was > 100 µM (inactive); in assay [20], > 100 µM (inactive); in assay [11] it was 24 µM (inactive). The GI50 in assay [12] was 28 µM (inactive); in assay [13], 34 µM (inactive); in [15] it was 39.9 µM (inactive); in assay [16], > 100 µM (inactive); in assay [17], 33.7 µM (inactive); in [18] it was 30.5 µM (inactive).

In the case of `COC(=O)Nc1nc2cc(NS(=O)(=O)c3ccc(F)cc3)ccc2[nH]1`, the GI50 in [1] was 23.6 µM (inactive); in [2] it was 13.7 µM (inactive); in assay [3], 43.3 µM (inactive); in [4] it was 2.07 µM (inactive); in [5], 4.65 µM (inactive); in assay [6] it was 48.1 µM (inactive). Also, the GI50 in assay [7] was 21.9 µM (inactive); in assay [8] it was 7.5 µM (inactive); in [9], 13.3 µM (inactive); in assay [19], 2.8 µM (inactive); in [10], 45.2 µM (inactive); in [20], 15 µM (inactive). For the same molecule, the GI50 is 18.5 µM (inactive) in [11]; 14.5 µM (inactive) in assay [12]; 13.1 µM (inactive) in assay [13]; 6.49 µM (inactive) in [14]; > 100 µM (inactive) in assay [16]; 14.4 µM (inactive) in assay [17]. Further, the GI50 in [18] is 37.6 µM (inactive).

As to `COc1cc(OCc2ccc3nc(-c4ccccc4)c(Cl)nc3c2)cc(OC)c1OC`, the GI50 in assay [1] is 24.8 µM (inactive); in assay [2] it was > 100 µM (inactive); in assay [3], 33.3 µM (inactive); in [4], 39.6 µM (inactive); in assay [6], > 100 µM (inactive); in [7], 39.1 µM (inactive). Further, the GI50 was 26.3 µM (inactive) in [8]; 58.1 µM (inactive) in [9]; > 100 µM (inactive) in assay [19]; 77.1 µM (inactive) in [10]; > 100 µM (inactive) in assay [20]; 37.4 µM (inactive) in [12]. In addition, the GI50 in [14] is 48.4 µM (inactive); in assay [15] it was > 100 µM (inactive); in assay [16], 93.8 µM (inactive); in assay [17], 19.4 µM (inactive); in assay [18], > 100 µM (inactive).

On to `CC(CCCCNC(=O)OC(C)(C)C)NC(=O)NC(C)CCCCNC(=O)OC(C)(C)C` (stereo unspecified), for which the GI50 in [1] is > 100 µM (inactive); in assay [2], 6.21 µM (inactive); in assay [3], > 100 µM (inactive); in assay [4] it was > 100 µM (inactive); in [5], 83.2 µM (inactive); in assay [6], > 100 µM (inactive). The GI50 in assay [7] was > 100 µM (inactive); in [8], > 100 µM (inactive); in assay [9], > 100 µM (inactive); in [19] it was 57 µM (inactive); in assay [10], > 100 µM (inactive); in assay [11], > 100 µM (inactive). Also, the GI50 in assay [12] was 63.5 µM (inactive); in [13], > 100 µM (inactive); in assay [14] it was > 100 µM (inactive); in assay [15], 99.8 µM (inactive); in [16], 83 µM (inactive); in assay [17], 31.3 µM (inactive). In addition, the GI50 in assay [18] is > 100 µM (inactive).

Consider `c1cnn(C23C4C5C6C4C2C6C53)c1` (stereo unspecified), for which the GI50 in [2], in assay [3], in assay [4], in assay [5], in assay [6] and in [7] was > 100 µM (inactive) throughout. Further, the GI50 in assay [9], in [10], in [20], in assay [12], in assay [13] and in assay [14] was > 100 µM (inactive) each time. Also, the GI50 in assay [15], in assay [16] and in assay [17] was > 100 µM (inactive) throughout.

On to `COc1ccccc1Nc1nc(N)nc(N)c1N=O`, for which the GI50 in assay [2], in assay [3], in assay [4], in assay [5], in assay [6] and in assay [7] was > 100 µM (inactive) each time. Further, the GI50 in assay [8], in [9], in assay [10], in assay [20], in assay [11] and in [12] was > 100 µM (inactive) in each case. In addition, the GI50 in [13] was > 100 µM (inactive); in assay [14], > 100 µM (inactive); in assay [15], > 100 µM (inactive); in assay [16], 2.82 µM (inactive); in assay [17] it was > 100 µM (inactive); in [18], > 100 µM (inactive).

On to `COc1cc(OC)cc(-n2c(N)c(-c3nc4ccccc4s3)c3ccc([N+](=O)[O-])cc3c2=O)c1`, for which the GI50 in [1] was 31.8 µM (inactive); in [2] it was 69.7 µM (inactive); in assay [4], 27.7 µM (inactive); in assay [5], 13.4 µM (inactive); in assay [6], > 100 µM (inactive); in [7], 21.3 µM (inactive). Moreover, the GI50 in [8] was 32.5 µM (inactive); in assay [9] it was 24.9 µM (inactive); in assay [20], > 100 µM (inactive); in assay [12], 28.5 µM (inactive); in [13] it was 79.6 µM (inactive); in assay [14], 27.8 µM (inactive). The GI50 in assay [15] was 24.3 µM (inactive); in [16], 17.2 µM (inactive); in assay [17], 13.3 µM (inactive); in assay [18], 40.4 µM (inactive).

On to `COc1ccc(C(c2ccc3c(c2)OCO3)N2C(=O)CCC2C(=O)O)cc1` (stereo unspecified), for which the GI50 in assay [1] was > 100 µM (inactive); in assay [2] it was > 100 µM (inactive); in assay [3], > 100 µM (inactive); in [4], > 10 µM (inactive); in [5], > 100 µM (inactive); in [6], > 100 µM (inactive). Also, the GI50 in assay [7], in assay [8], in [9], in [19], in assay [10] and in assay [20] was > 100 µM (inactive) each time. Moreover, the GI50 in [12], in [13], in [14], in [15], in assay [16] and in assay [17] was > 100 µM (inactive) throughout. Further, the GI50 in assay [18] was > 100 µM (inactive).
